From patent publication US11453703B2, “Heterotandem bicyclic peptide complexes” (BicycleTX Limited, priority 2018, dated 2022)
Where two headings read alike, the source gives them in different places. Starred links: 1 amine or outer side, 2 acyl side, 3 side chain; linkers in the order of their positions; H or OH if unused. Positions of bridges follow the written chain, without caps; N, C: chain ends. Non-standard residues stand in square brackets, D forms with d. Chains are numbered I, II in the order given. X1 = O=C(CCc1cn(CCOCCOCCOCCOCCOCCOCCOCCOCCOCCOCCOCCOCCC(=O)[*:2])nn1)NCCC(=O)[*:1]; TATA = O=C(CC[*:1])N1CN(C(=O)CC[*:2])CN(C(=O)CC[*:3])C1; 1Nal = N[C@@H](Cc1cccc2ccccc12)C(=O)O; Hyp = O=C(O)[C@@H]1C[C@@H](O)CN1; hArg = N=C(N)NCCCC[C@H](N)C(=O)O; tBuAla = CC(C)(C)C[C@H](N)C(=O)O; Nle = CCCC[C@H](N)C(=O)O; Sar = CNCC(=O)O

How the values were obtained:
CD137 [1] = target: T1, CD137 (Homo sapiens, UniProt Q07011); assay: CD137 reporter assay, co-culture with EphA2 tumour cells; type: cell-based; set-up: host or cells: Jurkat reporter cells
T1 sequence (Q07011 24-255): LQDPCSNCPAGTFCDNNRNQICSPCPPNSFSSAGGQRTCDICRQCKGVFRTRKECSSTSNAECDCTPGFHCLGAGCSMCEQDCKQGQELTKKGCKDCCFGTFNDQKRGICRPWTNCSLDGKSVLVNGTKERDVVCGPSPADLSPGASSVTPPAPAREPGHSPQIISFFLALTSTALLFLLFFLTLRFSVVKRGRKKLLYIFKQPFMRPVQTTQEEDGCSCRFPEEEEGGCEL
Method: Culture medium referred to as R1 media is prepared by adding 1% FBS to RPMI-1640 (component of Promega kit CS196005). Serial dilutions of test articles in R1 are prepared in a sterile 96 well-plate. Use 25 μl per well of test articles or R1 (as a background control) to designated wells in white cell culture plate. Tumour cells* are harvested and resuspended at a concentration of 400,000 cells/mL in R1 media. Twenty five (25) μL/well tumour cells are used in white cell culture plate. Jurkat cells (Promega kit CS196005, 0.5 mL) are thawed in the water bath and then added to 5 ml pre-warmed R1 medium. Twenty five (25) μL/well Jurkat cells are used in white cell culture plate. Incubate the cells and test articles for 6h at 37° C., 5% CO2. At the end of 6 h, add 75 μl/well Bio-Glo™ (Promega) and incubate for 10 min before reading luminescence in a plate reader (Clariostar, BMG). The fold change relative to cells (Jurkat cells+Cell line used in co-culture) is calculated and plotted in GraphPad Prism as log(agonist) vs response to determine EC50 (nM) and Fold Induction over background (Max)

CD137 [2] = target: T1, CD137; assay: CD137 reporter assay, co-culture with Nectin-4 tumour cells; type: cell-based; set-up: host or cells: Jurkat reporter cells;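 note: jurkat reporter cells co-cultured with tumour cells and test article for 6 h, luminescence signal relative to Jurkat plus tumour cells lacking test article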
[3] = tumour target Nectin4, co-culture with H1376, 6 h

| Compound | EC50 (CD137 [2]) [nM] | Fold Induction over Background (CD137 [2]; [3]) [fold] | further results |
| --- | --- | --- | --- |
| CCCC[C@@H]1NC(=O)[C@H](Cc2ccc(O)cc2)NC(=O)[C@@H]2CCCN2C(=O)[C@H](CC(=O)O)NC(=O)[C@H](C)NC(=O)[C@H](Cc2ccccc2)NC(=O)[C@@H]2CSCCC(=O)N3CN(CN(C3)C(=O)CCSC[C@@H](C(=O)N[C@@H](CNC(=O)CCOCCOCCOCCOCCOCCOCCOCCOCCOCCOCCOCCOCCn3cc(CCC(=O)NCCC(=O)N(C)CC(=O)N(C)CC(=O)N(C)CC(=O)N(C)CC(=O)N(C)CC(=O)N(C)CC(=O)N(C)CC(=O)N(C)CC(=O)N(C)CC(=O)N(C)CC(=O)N[C@@H](C)C(=O)N[C@@H](CCCCNC(=N)N)C(=O)N[C@@H](CC(=O)O)C(=O)N[C@H]4CSCCC(=O)N5CN6CN(C5)C(=O)CCSC[C@H](NC(=O)[C@H](CC(C)C)NC(=O)[C@@H]5CCCN5C(=O)[C@H](CC(N)=O)NC(=O)[C@H](C(C)C)NC(=O)[C@H](CC(C)C)NC(=O)[C@@H]5C[C@@H](O)CN5C4=O)C(=O)N[C@@H](CC(C)C)C(=O)N[C@@H](Cc4c[nH]cn4)C(=O)N4CCC[C@H]4C(=O)N[C@H](CC(=O)O)C(=O)N[C@@H](Cc4c[nH]c5ccccc45)C(=O)N[C@@H](CCCCNC(=N)N)C(=O)N[C@H](C(N)=O)CSCCC6=O)nn3)C(N)=O)NC1=O)C(=O)CCSC[C@H](NC(=O)[C@H](C)NC(C)=O)C(=O)N[C@@H]([C@@H](C)CC)C(=O)N[C@@H](CCC(=O)O)C(=O)N[C@@H](CCC(=O)O)C(=O)NCC(=O)N[C@@H](CCC(N)=O)C(=O)N[C@@H](Cc1ccc(O)cc1)C(=O)N2 [BCY7985] |  |  | induction of CD137 cell activity (CD137 [1]; Promega CD137 luciferase reporter assay, in the presence of EphA2-expressing HT1080 cells (FIG. 3)): strong induction of CD137 cell activity; CD137 induction (CD137 [1]; in the absence of HT1080 cells (FIG. 3)): no CD137 induction; Fold Induction over Background (CD137 [1]; tumour target EphA2, co-culture with SC-OV-3, 6 h): 15 fold |
| CCCC[C@@H]1NC(=O)[C@H](Cc2ccc(O)cc2)NC(=O)[C@@H]2CCCN2C(=O)[C@H](CC(=O)O)NC(=O)[C@H](C)NC(=O)[C@H](Cc2ccccc2)NC(=O)[C@@H]2CSCCC(=O)N3CN(CN(C3)C(=O)CCSC[C@@H](C(=O)N[C@@H](CNC(=O)CCOCCOCCOCCOCCOCCOCCOCCOCCOCCOCCOCCOCCn3cc(CCC(=O)NCCC(=O)N(C)CC(=O)N(C)CC(=O)N(C)CC(=O)N(C)CC(=O)N(C)CC(=O)N(C)CC(=O)N(C)CC(=O)N(C)CC(=O)N(C)CC(=O)N(C)CC(=O)N[C@H](C(=O)NCC(=O)N4CCC[C@H]4C(=O)N[C@H]4CSCCC(=O)N5CN6CN(C5)C(=O)CCSC[C@H](NC(=O)[C@@H]5CCCN5C(=O)[C@H]([C@@H](C)O)NC(=O)[C@@H]5CCCN5C(=O)[C@H](CC(=O)O)NC(=O)[C@H](Cc5c[nH]c7ccccc57)NC(=O)[C@H](CC(C)C)NC4=O)C(=O)N[C@@H](C)C(=O)N[C@@H](CC(N)=O)C(=O)N[C@@H](CC(C)C)C(=O)N[C@@H](Cc4c[nH]cn4)C(=O)N[C@@H](CC(C)C)C(=O)N[C@@H](CCCCNC(=N)N)C(=O)N[C@H](C(N)=O)CSCCC6=O)C(C)C)nn3)C(N)=O)NC1=O)C(=O)CCSC[C@H](NC(=O)[C@H](C)NC(C)=O)C(=O)N[C@@H]([C@@H](C)CC)C(=O)N[C@@H](CCC(=O)O)C(=O)N[C@@H](CCC(=O)O)C(=O)NCC(=O)N[C@@H](CCC(N)=O)C(=O)N[C@@H](Cc1ccc(O)cc1)C(=O)N2 [BCY8943] |  |  | fold induction at 0.1 µM (CD137 [1]; tumour target EphA2, co-culture with PC3, at 100 nM, read-out: Fold Induction over Background at 100 nM): < 2 |
| CCCC[C@@H]1NC(=O)[C@H](Cc2ccc(O)cc2)NC(=O)[C@@H]2CCCN2C(=O)[C@H](CC(=O)O)NC(=O)[C@H](C)NC(=O)[C@H](Cc2ccccc2)NC(=O)[C@@H]2CSCCC(=O)N3CN(CN(C3)C(=O)CCSC[C@@H](C(=O)N[C@@H](C)C(N)=O)NC1=O)C(=O)CCSC[C@H](NC(C)=O)C(=O)N[C@@H](CC(C)(C)C)C(=O)N1CCC[C@H]1C(=O)N[C@@H](CCCCNC(=O)CCc1cn(CC(=O)N[C@H]3CSCCC(=O)N4CN5CN(C4)C(=O)CCSC[C@H](NC(=O)[C@@H](CC(=O)O)NC(=O)[C@H](Cc4cccc6ccccc46)NC(=O)[C@@H]4CCCN4C3=O)C(=O)N[C@@H](CCSC)C(=O)N[C@@H](CCCCNC(=N)N)C(=O)N[C@@H](CC(=O)O)C(=O)N[C@@H](Cc3c[nH]c4ccccc34)C(=O)N[C@@H](CO)C(=O)N[C@@H]([C@@H](C)O)C(=O)N3CCC[C@H]3C(=O)N3C[C@H](O)C[C@H]3C(=O)N[C@@H](Cc3c[nH]c4ccccc34)C(=O)N[C@H](C(N)=O)CSCCC5=O)nn1)C(=O)N[C@H](C)C(=O)N1CCC[C@H]1C(=O)N[C@@H](Cc1ccc(O)cc1)C(=O)N2 [BCY11373] |  |  | Fold Induction over Background (CD137 [2]): 74 fold; EC50 (CD137 [2]; tumour target Nectin4, co-culture with H1376, 6 h, read-out: EC50): 0.16 nM |
| CCCC[C@@H]1NC(=O)[C@H](Cc2ccc(O)cc2)NC(=O)[C@@H]2CCCN2C(=O)[C@H](CC(=O)O)NC(=O)[C@H](C)NC(=O)[C@H](Cc2ccccc2)NC(=O)[C@@H]2CSCCC(=O)N3CN(CN(C3)C(=O)CCSC[C@@H](C(=O)N[C@@H](C)C(N)=O)NC1=O)C(=O)CCSC[C@H](NC(C)=O)C(=O)N[C@@H](CC(C)(C)C)C(=O)N1CCC[C@H]1C(=O)N[C@@H](CCC(=O)O)C(=O)N[C@H](CCCCNC(=O)CCc1cn(CC(=O)N[C@H]3CSCCC(=O)N4CN5CN(C4)C(=O)CCSC[C@H](NC(=O)[C@@H](CC(=O)O)NC(=O)[C@H](Cc4cccc6ccccc46)NC(=O)[C@@H]4CCCN4C3=O)C(=O)N[C@@H](CCSC)C(=O)N[C@@H](CCCCNC(=N)N)C(=O)N[C@@H](CC(=O)O)C(=O)N[C@@H](Cc3c[nH]c4ccccc34)C(=O)N[C@@H](CO)C(=O)N[C@@H]([C@@H](C)O)C(=O)N3CCC[C@H]3C(=O)N3C[C@H](O)C[C@H]3C(=O)N[C@@H](Cc3c[nH]c4ccccc34)C(=O)N[C@H](C(N)=O)CSCCC5=O)nn1)C(=O)N1CCC[C@H]1C(=O)N[C@@H](Cc1ccc(O)cc1)C(=O)N2 [BCY11374] | 0.091 | 72 |  |
| CCCC[C@@H]1NC(=O)[C@H](Cc2ccc(O)cc2)NC(=O)[C@@H]2CCCN2C(=O)[C@H](CC(=O)O)NC(=O)[C@H](C)NC(=O)[C@H](Cc2ccccc2)NC(=O)[C@@H]2CSCCC(=O)N3CN(CN(C3)C(=O)CCSC[C@@H](C(=O)N[C@@H](CNC(=O)CCc3cn(CC(=O)N[C@H]4CSCCC(=O)N5CN6CN(C5)C(=O)CCSC[C@H](NC(=O)[C@@H](CC(=O)O)NC(=O)[C@H](Cc5cccc7ccccc57)NC(=O)[C@@H]5CCCN5C4=O)C(=O)N[C@@H](CCSC)C(=O)N[C@@H](CCCCNC(=N)N)C(=O)N[C@@H](CC(=O)O)C(=O)N[C@@H](Cc4c[nH]c5ccccc45)C(=O)N[C@@H](CO)C(=O)N[C@@H]([C@@H](C)O)C(=O)N4CCC[C@H]4C(=O)N4C[C@H](O)C[C@H]4C(=O)N[C@@H](Cc4c[nH]c5ccccc45)C(=O)N[C@H](C(N)=O)CSCCC6=O)nn3)C(N)=O)NC1=O)C(=O)CCSC[C@H](NC(C)=O)C(=O)N[C@@H](CC(C)(C)C)C(=O)N1CCC[C@H]1C(=O)N[C@@H](CCC(=O)O)C(=O)N[C@H](C)C(=O)N1CCC[C@H]1C(=O)N[C@@H](Cc1ccc(O)cc1)C(=O)N2 [BCY11375] | 0.23 | 72 |  |
| I: [Sar][Sar][Sar][Sar][Sar][Sar][Sar][Sar][Sar][Sar]CP[1Nal][dD]CM[hArg]DWSTP[Hyp]WC-NH2 / II: Ac-C[tBuAla]PE[dK]PYCFADPY[Nle]CA-NH2 (linker I:11-I:15-I:25, II:1-II:8-II:15 via TATA; linker I:N-II:5 via X1) [BCY10569] | 1.2 | 52 |  |
| I: [Sar][Sar][Sar][Sar][Sar][Sar][Sar][Sar][Sar][Sar]CP[1Nal][dD]CM[hArg]DWSTP[Hyp]WC-NH2 / II: Ac-C[tBuAla]PK[dA]PYCFADPY[Nle]CA-NH2 (linker I:11-I:15-I:25, II:1-II:8-II:15 via TATA; linker I:N-II:4 via X1) [BCY10567] |  | 45 |  |
